The text below walks through data of patent US8754101B2, “N-cyclobutyl-imidazopyridine-methylamine as TRPV1 antagonists” (Glaxo Group Limited, priority 2011, dated 2014).

Data set [1] concerns the target T1, TRPV1 receptor (Homo sapiens, UniProt Q8NER1).
T1 construct: expressed in transfected cells; host or cells: HEK-293 cells stably expressing mitochondrial targeted Aequorin, transduced with TRPV1 BacMam
Put plainly: Capsaicin assay for TRPV1 receptor antagonism (aequorin luminescence, HEK-293 cells expressing TRPV1). The following applies: HEK-293 cells expressing TRPV1, pH 7.4, challenge with 4×EC50 capsaicin, 15 min preincubation; read-out: pIC50 in the Capsaicin assay (converted). The format is cell-based. The method, then: Assays for the functional inhibition of TRPV1 Ion Channel by test compound using Capsaicin or Acid Stimulus challenge were performed.
Compounds were dissolved in DMSO to 1 mM. An 11 point 4 fold serial dilution was prepared and 0.5 ul dispensed into Greiner black clear bottom 384 well plates.
HEK-293 cells stably expressing mitochondrial targeted Aequorin were transfected with TRPV1 receptor bacmam at scale for cryopreservation in 1 ml vial aliquots. Cells can be stored at −140° C. for up to 18 months.
18-20 hours before assay, cells were rapidly thawed in a water bath at 37° C. and transferred to a 50 ml Falcon tube. Cells were resuspended in 9 mls of M1 ‘generic’ media (DMEM/F12 with 10% dialysed FBS-Invitrogen 041-95750V) for every 1 ml cells and then centrifuged for 5 min at 1000 rpm. The cell pellet was resuspended in ˜10 mls loading buffer (Tyrodes Base Buffer*+0.1% Pluronic Acid F68 solution+0.1% BSA) and the pH was adjusted to 7.4 for Capsaicin stimulus assay or 6.7 for Acid stimulus assay. Cell density was calculated using the Trypan Blue stain method and adjusted to 2.5×10 e6 cells/ml using loading buffer. Coelentrazine (DiscoverX Cat. No 0-0084L-500 uM stock made in 100% ethanol) was added to a final concentration of 5 uM and the falcon tube was covered in foil (to protect from light) and placed on a windmill rotator at room temperature for approximately 20 hours. *Base Buffer=Sigma kit T2145 was dissolved in deionised water, 20 mL HEPES solution (Sigma H0887) and 13.4 mL of NaHCO3 (Sigma S8761) and made up to 1 L.
After loading, a cell count was taken and cell density adjusted accordingly depending on assay stimulus.
For Capsaicin stimulus assay cells were diluted to 1.25×10 e5 cells/ml using dilution buffer (Tyrodes Base Buffer+0.1% Pluronic Acid F68 solution) at pH 7.4
To the compound plates, the following additions were made:
20 ul dilution buffer at pH 7.4 followed by 20 ul cells were added to the test compound plate and any agonist activity measured as luminescence AUC counts. The compound/cell mix was incubated for 15 minutes and then challenged with 20 ul of a 4×EC50 concentration of Capsaicin (calculated on the day of assay), with concomitant luminescence detection.
AUC data was exported from the reader and data analysis was performed using 4 parameter logistic model, with data normalised to nominal high and low controls within plate.

The test system of data set [2] is i.v. Capsaicin Induced Bronchoconstriction. Briefly: Inhibition of i.v. capsaicin induced bronchoconstriction in anesthetized guinea pigs. The format is in vivo. The method, then:
Male Hartley Guinea Pigs weighing between 400 and 700 g were anesthetized with ketamine/xylazine mixture (88/15 mg/kg, i.m.). Animals were placed on their back, a toe pinch was performed to ensure depth of anaesthesia and a section of skin and fur was dissected away from the neck. The trachea, jugular vein, and carotid artery were isolated and cannulated to allow for ventilation, drug delivery, and blood pressure monitoring. Compounds were delivered via intra-tracheal delivery (in 200 uL of 0.5% Tween 80) 1 hour before capsaicin challenge. Depth of anaesthesia was confirmed by toe pinch and the Guinea pigs were placed in the full body plethysmograph. The chamber was closed and the animal was paralyzed by administration of Gallamine (2 mg/kg i.v.). Animals were ventilated at ˜1.0 mL/110 g, 60-65 breaths per minute by a Harvard Apparatus rodent respirator. Blood pressure and heart rate were continuously monitored to assess the level of anaesthesia, with supplemental anaesthetic doses given as required to maintain the proper level of anaesthesia. […] The BioWindow Cardio Pulmonary Software version 1.02 (Modular Instruments, Inc.) recorded arterial pressure, pulmonary pressure and airflow. Air pressure delta (difference between maximum and minimum air pressure) was used as the primary readout of inhibition of the capsaicin induced bronchoconstriction. […]

Data set [3] is described as follows: Solubility in simulated lung fluid. Type of data set: physicochemical. The following applies: Phosphate buffer, pH 6.9, 0.75 mM lecithin, 0.1% BSA, 37° C. over 4 hours.

Structures can show the parent of a compound that is named as a salt.

T1 sequence (Q8NER1 whole entry): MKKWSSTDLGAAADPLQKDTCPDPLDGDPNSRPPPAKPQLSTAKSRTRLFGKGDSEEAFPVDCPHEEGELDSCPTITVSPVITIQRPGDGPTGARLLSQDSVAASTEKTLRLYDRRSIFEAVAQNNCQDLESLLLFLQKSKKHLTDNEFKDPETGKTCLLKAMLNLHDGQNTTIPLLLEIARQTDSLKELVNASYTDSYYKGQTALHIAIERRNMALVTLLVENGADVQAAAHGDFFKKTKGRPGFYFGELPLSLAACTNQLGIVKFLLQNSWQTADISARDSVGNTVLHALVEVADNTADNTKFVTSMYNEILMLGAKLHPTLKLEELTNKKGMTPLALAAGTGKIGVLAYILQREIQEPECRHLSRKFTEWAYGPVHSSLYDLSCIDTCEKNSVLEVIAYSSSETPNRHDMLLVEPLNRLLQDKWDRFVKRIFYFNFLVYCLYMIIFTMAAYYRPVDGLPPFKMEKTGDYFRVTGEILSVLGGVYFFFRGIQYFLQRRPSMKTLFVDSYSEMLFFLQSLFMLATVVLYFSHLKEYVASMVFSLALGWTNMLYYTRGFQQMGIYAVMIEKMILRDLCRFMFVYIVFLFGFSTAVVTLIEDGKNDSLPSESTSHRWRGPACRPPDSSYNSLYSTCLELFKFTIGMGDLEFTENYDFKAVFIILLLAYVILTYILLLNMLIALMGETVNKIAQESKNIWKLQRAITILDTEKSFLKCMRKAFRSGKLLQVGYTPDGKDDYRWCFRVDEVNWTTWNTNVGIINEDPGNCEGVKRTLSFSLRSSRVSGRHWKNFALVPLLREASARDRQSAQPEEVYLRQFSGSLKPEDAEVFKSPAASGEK

Regarding `CC(C)(C)c1c(F)cc(O[C@H]2C[C@H](NCc3cccn4ccnc34)C2)cc1F` [Example 11, trans-3-{[4-(1,1-Dimethylethyl)-3,5-difluorophenyl]oxy}-N-(imidazo[1,2-a]pyridin-8-ylmethyl)cyclobutanamine], the IC50 in data set [1] was 1.26 to 100 nM. `OCc1ccc(CN[C@H]2C[C@H](Oc3cccc(Cl)c3Cl)C2)c2nccn12` [Example 13, {8-[({trans-3-[(2,3-Dichlorophenyl)oxy]cyclobutyl}amino)methyl]imidazo[1,2-a]pyridin-5-yl}methanol]: in data set [1], the IC50 is 1.26 to 100 nM. For the same compound, the “inhibition of capsaicin induced bronchoconstriction” value in data set [2] (dose 30 ug/kg intra-tracheal, 1 hour before capsaicin 20 ug/kg i.v., n=3) is 61% (+/−16.6%). As for `FC(F)(F)c1cc(Cl)ccc1O[C@H]1C[C@H](NCc2cccn3ccnc23)C1` [Example 9, trans-3-{[4-Chloro-2-(trifluoromethyl)phenyl]oxy}-N-(imidazo[1,2-a]pyridin-8-ylmethyl)cyclobutanamine], the IC50 in data set [1] was 1.26 to 100 nM. Turning to `OCc1ccc(CN[C@H]2C[C@H](Oc3ccc(F)c(C(F)(F)F)c3)C2)c2nccn12` [Example 14, (8-{[(trans-3-{[4-Fluoro-3-(trifluoromethyl)phenyl]oxy}cyclobutyl)amino]methyl}imidazo[1,2-a]pyridin-5-yl)methanol], in data set [1], the IC50 is 1.26 to 100 nM. `Cl.Fc1ccc(O[C@H]2C[C@H](NCc3cccn4ccnc34)C2)cc1C(F)(F)F` [Example 7A, trans-3-{[4-Fluoro-3-(trifluoromethyl)phenyl]oxy}-N-(imidazo[1,2-a]pyridin-8-ylmethyl)cyclobutanamine, hydrochloride salt]: the ED50 (in general, the midpoint of the dose-response relation) in data set [2] (Cavia porcellus, intra-tracheal dosing 1 hour before capsaicin 20 ug/kg i.v., estimated from dose response 0.005-5 mg/kg) was 0.033 mg/kg. For the compound `FC(F)(F)c1cc(O[C@H]2C[C@H](NCc3cccn4ccnc34)C2)ccc1Cl` [Example 6, trans-3-{[4-Chloro-3-(trifluoromethyl)phenyl]oxy}-N-(imidazo[1,2-a]pyridin-8-ylmethyl)cyclobutanamine], the IC50 in data set [1] is 1.26 to 100 nM. Turning to `FC(F)(F)c1cccc(O[C@H]2C[C@H](NCc3cccn4ccnc34)C2)c1` [Example 1, trans-N-(Imidazo[1,2-a]pyridin-8-ylmethyl)-3-{[3-(trifluoromethyl)phenyl]oxy}cyclobutanamine], in data set [1], the IC50 is 1.26 to 100 nM. `CC(C)(C)c1c(F)cc(O[C@H]2C[C@@H](NCc3cccn4ccnc34)C2)cc1F` [Example 12, cis-3-{[4-(1,1-Dimethylethyl)-3,5-difluorophenyl]oxy}-N-(imidazo[1,2-a]pyridin-8-ylmethyl)cyclobutanamine]: the IC50 in data set [1] is 1.26 to 100 nM. With `FC(F)(F)c1ccc(O[C@H]2C[C@H](NCc3cccn4ccnc34)C2)c(Cl)c1` [Example 8, trans-3-{[2-Chloro-4-(trifluoromethyl)phenyl]oxy}-N-(imidazo[1,2-a]pyridin-8-ylmethyl)cyclobutanamine], in data set [1], the IC50 is 1.26 to 100 nM. Take `Clc1cccc(O[C@H]2C[C@H](NCc3cccn4ccnc34)C2)c1Cl` [Example 2, trans-3-[(2,3-Dichlorophenl)oxy]-N-(imidazo[1,2-a]pyridin-8-ylmethyl)cyclobutanamine]: the IC50 in data set [1] is 1.26 to 100 nM. On to `Fc1ccc(O[C@H]2C[C@H](NCc3cccn4ccnc34)C2)cc1C(F)(F)F.O=C(O)/C=C\C(=O)O` [Example 7B, trans-3-{[4-Fluoro-3-(trifluoromethyl)phenyl]oxy}-N-(imidazo[1,2-a]pyridin-8-ylmethyl)cyclobutanamine, maleate salt], for which the solubility (usually how much of the substance goes into solution per volume) at 4 h in data set [3] was 1780 µg/mL.

For `Fc1ccc(O[C@H]2C[C@H](NCc3cccn4ccnc34)C2)cc1C(F)(F)F` [Example 7, trans-3-{[4-Fluoro-3-(trifluoromethyl)phenyl]oxy}-N-(imidazo[1,2-a]pyridin-8-ylmethyl)cyclobutanamine], the IC50 in data set [1] was 1.26 to 100 nM. Turning to `FC(F)(F)c1cccc(O[C@H]2C[C@H](NCc3cccn4ccnc34)C2)c1Cl` [Example 4, trans-3-{[2-Chloro-3-(trifluoromethyl)phenyl]oxy}-N-(imidazo[1,2-a]pyridin-8-ylmethyl)cyclobutanamine], the IC50 in data set [1] is 1.26 to 100 nM.

Regarding `Fc1ccc(O[C@H]2C[C@H](NCc3cccn4ccnc34)C2)cc1Cl` [Example 5, trans-3-[(3-Chloro-4-fluorophenyl)oxy]-N-(imidazo[1,2-a]pyridin-8-ylmethyl)cyclobutanamine, trifluoroacetate], the IC50 in data set [1] was 1.26 to 100 nM.

As for `OCc1cnc2c(CN[C@H]3C[C@H](Oc4cccc(Cl)c4Cl)C3)cccn12` [Example 15, {8-[({trans-3-[(2,3-Dichlorophenyl)oxy]cyclobutyl}amino)methyl]imidazo[1,2-a]pyridin-3-yl}methanol], the IC50 in data set [1] was 1.26 to 100 nM.
